This is an account of results in patent publication US20070232492A1, “Herbicidal Composition” (Ishihara Sangyo Kaisha, LTD., priority 2004, published 2007).

Each structure is given as a SMILES string. Where two headings read alike, the source gives them in different places.

In this assay the test system is barnyardgrass (Echinochloa oryzicola vasing). Put plainly: Growth inhibition of barnyardgrass in paddy soil pots, application under submerged condition, visual rating (observed value) and Colby expected value. It counts as in vivo. Particulars: for inhibition at 7.9 g/ha: 0.079 g/a; for inhibition at 15.8 g/ha: 0.158 g/a; for inhibition at 50 g/ha: 0.5 g/a; for inhibition at 51 g/ha: 0.51 g/a; for inhibition at 112.5 g/ha: 1.125 g/a; for inhibition at 225 g/ha: 2.25 g/a.
Source text: When the herbicidal activity in a case where two active ingredients are combined, is larger than the simple sum of the respective herbicidal activities of the two active ingredients (the expected activity), it is called a synergistic effect. The activity expected by the combination of two active ingredients can be calculated as follows (Colby S. R., “Weed”, vol. 15, p. 20-22, 1967). E=p+q−(p×q÷100) where p: growth inhibition rate when treated with x (g/a) of herbicide X,
q: growth inhibition rate when treated with y (g/a) of herbicide Y,
E: growth inhibition rate expected when treated with x (g/a) of herbicide X and y (g/a) of herbicide Y.
Namely, when the actual growth inhibition rate (observed value) is larger than the growth inhibition rate by the above calculation (expected value), the activity by the combination can be regarded as showing a synergistic effect.
Paddy field soil was put into a 1/10,000 are pot, and seeds of barnyardgrass (Echinochloa oryzicola vasing) were sown and left to stand under an irrigated condition with a water depth of 3.5 cm. When barnyardgrass reached 2.0 to 2.5 leaf stage, wettable powders of compound A2 and compound (B1.1) were, respectively, diluted with water and applied under submerged condition so that the active ingredients became the prescribed amounts, respectively. The state of growth was visually observed 21 days after application, and the growth inhibition rate (%) evaluated in accordance with the following evaluation standard (observed value) and the growth inhibition rate (%) calculated by the above-mentioned Colby method (expected value) are shown in Table 1.
Growth inhibition rate (%)=0% (equivalent to the non-treated area) to 100% (complete kill)
(§1) Paddy field soil was put into a 1/10,000 are pot, and seeds of barnyardgrass (Echinochloa oryzicola vasing) were sown and left to stand under an irrigated condition with a water depth of 3.5 cm. When barnyardgrass reached 2.0 to 2.5 leaf stage, wettable powders of compound A2 and compound (B2.1) were, respectively, diluted with water and applied under submerged condition so that the active ingredients became the prescribed amounts, respectively. The state of growth was visually observed 21 days after application, and evaluation and calculation were carried out in the same manner as in the above Test Example 1.
as §1, with “leaf stage, a wettable powder” for “leaf stage, wettable powders”, “a wettable powder of compound” for “stage, wettable powders of compound”, “A2 and an emulsifiable concentrate of compound (B3.1)” for “A2 and compound (B2.1)”, “of compound (B3.1) were, respectively,” for “and compound (B2.1) were, respectively,”
as §1, with “(B4.1)” for “(B2.1)”
Paddy field soil was put into a 1/10,000 are pot, and seeds of barnyardgrass (Echinochloa oryzicola vasing) were sown and left to stand under an irrigated condition with a water depth of 3.5 cm. […]

[1] abbreviates: Echinochloa oryzicola, soil, 528 h, 2.5 to 3.0 leaf stage, 22 days after application, read-out: Growth inhibition rate (%) Observed.
[2] abbreviates: Echinochloa oryzicola, soil, 336 h, 2.8 to 3.4 leaf stage, 14 days after application, Test Examples 66-72, read-out: Growth inhibition rate (%) Observed.
[3] abbreviates: Echinochloa oryzicola, soil, 504 h, 2.0 to 2.5 leaf stage, 21 days after application, read-out: Growth inhibition rate (%) Observed.
Setting [4] is: Echinochloa oryzicola, soil, 528 h, 2.1 to 3.2 leaf stage, 22 days after application, read-out: Growth inhibition rate (%) Observed.
The mark [5] stands for this setting: Echinochloa oryzicola, soil, 504 h, 3.0 to 3.3 leaf stage, 21 days after application, read-out: Growth inhibition rate (%) Observed.

For the compound `COC(=O)c1c(Cl)nn(C)c1S(=O)(=O)NC(=O)Nc1nc(OC)cc(OC)n1` [Compound (B1.6), halosulfuron-methyl], for the setting “Echinochloa oryzicola, soil, 456 h, read-out: Growth inhibition rate (%) Observed, 0.3 g/a, 2.8 to 3.2 leaf stage, 19 days after application, Test Examples 62-65”, the inhibition at 30 g/ha is 25%. The inhibition at 60 g/ha (Echinochloa oryzicola, soil, 456 h, read-out: Growth inhibition rate (%) Observed, 0.6 g/a, 2.8 to 3.2 leaf stage, 19 days after application, Test Examples 62-65) is 40%.

With `CCOc1ccccc1OS(=O)(=O)NC(=O)Nc1nc(OC)cc(OC)n1` [Compound (B1.5), ethoxysulfuron], the inhibition at 10.5 g/ha (Echinochloa oryzicola, soil, 336 h, 0.105 g/a, 2.8 to 3.4 leaf stage, 14 days after application, Test Examples 66-72, read-out: Growth inhibition rate (%) Observed) worked out at 10%. For the same compound, the inhibition at 21 g/ha (Echinochloa oryzicola, soil, 336 h, 0.21 g/a, 2.8 to 3.4 leaf stage, 14 days after application, Test Examples 66-72, read-out: Growth inhibition rate (%) Observed) is 20%. Further, under setting [1], the inhibition at 7.9 g/ha was 0% and the inhibition at 15.8 g/ha is 3%.

With `CS(=O)(=O)c1ccc(C(=O)C2C(=O)CCCC2=O)c([N+](=O)[O-])c1` [Compound (B4.2), mesotrione], the inhibition at 25 g/ha reads like this: (Echinochloa oryzicola, soil, 336 h, 0.25 g/a, 2.8 to 3.4 leaf stage, 14 days after application, Test Examples 66-72, read-out: Growth inhibition rate (%) Observed) 0%; (Echinochloa oryzicola, soil, 504 h, 0.25 g/a, 2.0 to 2.5 leaf stage, 21 days after application, read-out: Growth inhibition rate (%) Observed) 0%. The inhibition at 50 g/ha amounted to 0% under setting [2] and 0% under setting [3].

On to `CO/N=C(\C)c1cccc(Oc2nc(OC)cc(OC)n2)c1C(=O)OC` [Compound (B2.1), pyriminobac-methyl], for which the inhibition at 90 g/ha (Echinochloa oryzicola, soil, 336 h, read-out: Growth inhibition rate (%) Observed, 0.9 g/a, 2.8 to 3.4 leaf stage, 14 days after application, Test Examples 66-72) amounted to 60%. The inhibition at 22.5 g/ha (Echinochloa oryzicola, soil, 504 h, read-out: Growth inhibition rate (%) Observed, 0.225 g/a, 2.0 to 2.5 leaf stage, 21 days after application) was found to be 60%. Where the note is “Echinochloa oryzicola, soil, 504 h, read-out: Growth inhibition rate (%) Observed, 0.45 g/a, 2.0 to 2.5 leaf stage, 21 days after application”, the inhibition at 45 g/ha was 80%.

As for `Cc1ccc(S(=O)(=O)Oc2c(C(=O)c3ccc(Cl)cc3Cl)c(C)nn2C)cc1` [Compound (B4.5), pyrazolynate], for the setting “Echinochloa oryzicola, soil, 456 h, 5 g/a, 2.8 to 3.2 leaf stage, 19 days after application, Test Examples 62-65, read-out: Growth inhibition rate (%) Observed”, the inhibition at 500 g/ha stood at 0%. Further, the inhibition at 1000 g/ha (Echinochloa oryzicola, soil, 456 h, 10 g/a, 2.8 to 3.2 leaf stage, 19 days after application, Test Examples 62-65, read-out: Growth inhibition rate (%) Observed) is 0%.

In the case of `COC(=O)c1ccccc1CS(=O)(=O)NC(=O)Nc1nc(OC)cc(OC)n1` [Compound (B1.1), bensulfuron-methyl], the inhibition at 25.5 g/ha (Echinochloa oryzicola, soil, 336 h, 0.255 g/a, 2.8 to 3.4 leaf stage, 14 days after application, Test Examples 66-72, read-out: Growth inhibition rate (%) Observed) came to 30%. Besides, the inhibition at 51 g/ha is 45% under setting [2] and 57% under setting [3]. Besides, where the note is “Echinochloa oryzicola, soil, 504 h, 0.26 g/a, 2.0 to 2.5 leaf stage, 21 days after application, read-out: Growth inhibition rate (%) Observed”, the inhibition at 26 g/ha turned out to be 47%.

Turning to `Cc1ccc(C(=O)COc2c(C(=O)c3ccc(Cl)c(C)c3Cl)c(C)nn2C)cc1` [Compound (B4.6), benzofenap], the “Growth inhibition rate (%) Observed” value worked out at 0% (5 g/a, 2.8 to 3.2 leaf stage, 19 days after application, Test Examples 62-65) and 0% (10 g/a, 2.8 to 3.2 leaf stage, 19 days after application, Test Examples 62-65).

Take `CS(=O)(=O)c1ccc(C(=O)C2C(=O)CCCC2=O)c(Cl)c1COCC1CCCO1` (stereo not drawn) [Compound (B4.4), AVH-301]: under setting [2], the inhibition at 112.5 g/ha is 0% and the inhibition at 225 g/ha worked out at 0%. Besides, under setting [4], the inhibition at 112.5 g/ha was 13% and the inhibition at 225 g/ha came out at 13%.

Take `CCOC(=O)c1cnn(C)c1S(=O)(=O)NC(=O)Nc1nc(OC)cc(OC)n1` [Compound (B1.3), pyrazosulfuron-ethyl]: the inhibition at 7.9 g/ha under setting [5] is 20% and the inhibition at 7.9 g/ha under setting [1] was 50%. In addition, the inhibition at 15.8 g/ha runs as follows: under setting [5], 37%; under setting [1], 70%.

In the case of `COc1cc(OC)nc(NC(=O)NS(=O)(=O)c2c(Cl)nc3ccccn23)n1` [Compound (B1.4), imazosulfuron], the inhibition at 45 g/ha (Echinochloa oryzicola, soil, 336 h, 0.45 g/a, 2.8 to 3.4 leaf stage, 14 days after application, Test Examples 66-72, read-out: Growth inhibition rate (%) Observed) was determined as 25%. The inhibition at 90 g/ha (Echinochloa oryzicola, soil, 336 h, 0.9 g/a, 2.8 to 3.4 leaf stage, 14 days after application, Test Examples 66-72, read-out: Growth inhibition rate (%) Observed) came out at 40%. Also, for the setting “Echinochloa oryzicola, soil, 528 h, 0.338 g/a, 2.5 to 3.0 leaf stage, 22 days after application, read-out: Growth inhibition rate (%) Observed”, the inhibition at 33.8 g/ha was found to be 53%. The inhibition at 67.5 g/ha (Echinochloa oryzicola, soil, 528 h, 0.675 g/a, 2.5 to 3.0 leaf stage, 22 days after application, read-out: Growth inhibition rate (%) Observed) stood at 57%.

Consider `Cc1nn(C)c(OCC(=O)c2ccccc2)c1C(=O)c1ccc(Cl)cc1Cl` [Compound (B4.3), pyrazoxyfen], for which the “Growth inhibition rate (%) Observed” value by setting is: (5.63 g/a, 2.5 to 3.0 leaf stage, 22 days after application) 0%; (11.25 g/a, 2.5 to 3.0 leaf stage, 22 days after application) 10%.

Regarding `CC(C)(NC(=O)NCc1ccccc1Cl)c1ccccc1` [Compound (B6.2), cumyluron], the inhibition at 750 g/ha (Echinochloa oryzicola, soil, 504 h, 7.5 g/a, 2.0 to 2.5 leaf stage, 21 days after application, read-out: Growth inhibition rate (%) Observed) amounted to 3%. For the same compound, where the note is “Echinochloa oryzicola, soil, 504 h, 15 g/a, 2.0 to 2.5 leaf stage, 21 days after application, read-out: Growth inhibition rate (%) Observed”, the inhibition at 1500 g/ha came to 3%.

`COCc1cccc(C(O)c2nc(OC)cc(OC)n2)c1NS(=O)(=O)C(F)F` (stereo not drawn) [Compound (B2.2), KUH-021]: the “Growth inhibition rate (%) Observed” value reads like this: (0.25 g/a, 2.8 to 3.2 leaf stage, 21 days after application, Test Examples 39-43) 60%; (0.335 g/a, 2.8 to 3.2 leaf stage, 21 days after application, Test Examples 39-43) 68%.
